# Assay results reported in US8044069B2, “Compounds as calcium channel blockers” (Abbott Laboratories, priority 2008, dated 2011).
# Biological target: human Cav2.2 (Homo sapiens, UniProt Q00975)
# Assay: Assessment of calcium channel activity using FLIPR (Ca2+ influx in IMR32 cells)
# Type: cell-based
# Conditions: IMR32 cells endogenously expressing human Cav2.2; 60 minute pre-incubation; 2 μM nifedipine; depolarized with 80 mM KCl, 5 mM CaCl2
# Method in brief: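 IMR32 cells were dye-loaded and pre-incubated 60 min with compound (10 μM to 0.1 nM) in 1.3 mM CaCl2 plus 2 μM nifedipine to block L-type channels. Cells were then depolarized with 80 mM KCl while Ca2+ was raised to 5 mM, and FLIPR read the influx. IC50 came from a sigmoidal fit of % inhibition versus the no-inhibitor control.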
# Sequence of human Cav2.2 (Q00975 whole entry): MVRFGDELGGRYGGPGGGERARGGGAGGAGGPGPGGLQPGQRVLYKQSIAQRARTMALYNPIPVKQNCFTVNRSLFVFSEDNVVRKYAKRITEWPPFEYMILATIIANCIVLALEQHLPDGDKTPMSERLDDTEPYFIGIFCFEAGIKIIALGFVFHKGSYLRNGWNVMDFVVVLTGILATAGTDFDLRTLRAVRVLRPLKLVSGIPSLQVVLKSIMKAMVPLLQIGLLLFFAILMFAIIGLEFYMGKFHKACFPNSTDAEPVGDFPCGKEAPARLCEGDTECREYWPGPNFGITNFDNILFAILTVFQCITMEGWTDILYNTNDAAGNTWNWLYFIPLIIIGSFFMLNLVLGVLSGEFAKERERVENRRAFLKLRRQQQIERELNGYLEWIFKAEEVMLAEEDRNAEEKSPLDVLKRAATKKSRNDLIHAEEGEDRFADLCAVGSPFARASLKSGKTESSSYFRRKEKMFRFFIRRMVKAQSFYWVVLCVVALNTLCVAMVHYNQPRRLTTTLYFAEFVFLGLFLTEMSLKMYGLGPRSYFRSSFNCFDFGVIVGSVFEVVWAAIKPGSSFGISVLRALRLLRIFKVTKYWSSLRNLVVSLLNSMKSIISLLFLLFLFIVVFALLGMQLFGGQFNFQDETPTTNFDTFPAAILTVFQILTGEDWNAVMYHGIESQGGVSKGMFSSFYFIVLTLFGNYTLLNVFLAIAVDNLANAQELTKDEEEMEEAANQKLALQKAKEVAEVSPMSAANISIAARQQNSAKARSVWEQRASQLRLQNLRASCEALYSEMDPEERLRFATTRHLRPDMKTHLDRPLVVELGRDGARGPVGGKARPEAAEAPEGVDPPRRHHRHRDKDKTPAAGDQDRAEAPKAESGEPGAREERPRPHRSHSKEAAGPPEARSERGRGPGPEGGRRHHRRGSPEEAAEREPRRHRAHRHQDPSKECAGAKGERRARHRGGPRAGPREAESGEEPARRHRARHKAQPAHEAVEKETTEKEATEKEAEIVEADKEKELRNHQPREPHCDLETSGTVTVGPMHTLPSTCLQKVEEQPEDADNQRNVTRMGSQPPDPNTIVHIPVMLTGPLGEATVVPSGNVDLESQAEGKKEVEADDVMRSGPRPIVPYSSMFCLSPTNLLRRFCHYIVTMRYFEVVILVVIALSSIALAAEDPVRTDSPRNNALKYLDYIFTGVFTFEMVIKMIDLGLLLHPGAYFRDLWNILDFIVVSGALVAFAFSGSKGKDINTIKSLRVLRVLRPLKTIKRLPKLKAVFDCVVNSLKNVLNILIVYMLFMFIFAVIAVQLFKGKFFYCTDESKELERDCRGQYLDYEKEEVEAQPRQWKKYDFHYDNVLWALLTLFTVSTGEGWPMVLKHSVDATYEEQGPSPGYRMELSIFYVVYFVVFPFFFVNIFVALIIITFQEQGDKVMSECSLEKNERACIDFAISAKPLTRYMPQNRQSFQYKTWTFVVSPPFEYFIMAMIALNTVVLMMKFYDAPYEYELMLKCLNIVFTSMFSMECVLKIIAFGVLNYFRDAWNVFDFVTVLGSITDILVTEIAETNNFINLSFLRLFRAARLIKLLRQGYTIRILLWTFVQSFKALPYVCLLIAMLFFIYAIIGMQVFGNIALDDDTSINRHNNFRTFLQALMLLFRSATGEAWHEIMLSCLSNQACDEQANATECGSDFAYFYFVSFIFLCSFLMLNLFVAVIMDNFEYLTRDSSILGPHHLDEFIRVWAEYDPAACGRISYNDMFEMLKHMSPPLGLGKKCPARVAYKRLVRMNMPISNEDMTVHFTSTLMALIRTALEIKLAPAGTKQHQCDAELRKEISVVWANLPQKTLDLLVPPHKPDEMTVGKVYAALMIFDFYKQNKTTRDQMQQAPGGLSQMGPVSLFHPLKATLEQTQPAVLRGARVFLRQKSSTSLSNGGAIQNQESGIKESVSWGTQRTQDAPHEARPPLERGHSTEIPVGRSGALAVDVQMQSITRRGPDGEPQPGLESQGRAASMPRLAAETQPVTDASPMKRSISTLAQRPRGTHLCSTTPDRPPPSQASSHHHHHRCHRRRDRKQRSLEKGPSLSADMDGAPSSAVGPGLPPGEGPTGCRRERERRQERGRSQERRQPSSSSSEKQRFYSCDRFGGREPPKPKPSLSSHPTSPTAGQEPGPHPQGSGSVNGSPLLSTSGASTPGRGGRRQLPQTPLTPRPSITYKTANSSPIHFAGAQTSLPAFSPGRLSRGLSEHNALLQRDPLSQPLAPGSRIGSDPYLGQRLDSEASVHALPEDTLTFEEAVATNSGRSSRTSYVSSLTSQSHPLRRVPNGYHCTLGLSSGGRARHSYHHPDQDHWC
# Sequence of human Cav2.2 (P54289 25-951 partner limits assumed): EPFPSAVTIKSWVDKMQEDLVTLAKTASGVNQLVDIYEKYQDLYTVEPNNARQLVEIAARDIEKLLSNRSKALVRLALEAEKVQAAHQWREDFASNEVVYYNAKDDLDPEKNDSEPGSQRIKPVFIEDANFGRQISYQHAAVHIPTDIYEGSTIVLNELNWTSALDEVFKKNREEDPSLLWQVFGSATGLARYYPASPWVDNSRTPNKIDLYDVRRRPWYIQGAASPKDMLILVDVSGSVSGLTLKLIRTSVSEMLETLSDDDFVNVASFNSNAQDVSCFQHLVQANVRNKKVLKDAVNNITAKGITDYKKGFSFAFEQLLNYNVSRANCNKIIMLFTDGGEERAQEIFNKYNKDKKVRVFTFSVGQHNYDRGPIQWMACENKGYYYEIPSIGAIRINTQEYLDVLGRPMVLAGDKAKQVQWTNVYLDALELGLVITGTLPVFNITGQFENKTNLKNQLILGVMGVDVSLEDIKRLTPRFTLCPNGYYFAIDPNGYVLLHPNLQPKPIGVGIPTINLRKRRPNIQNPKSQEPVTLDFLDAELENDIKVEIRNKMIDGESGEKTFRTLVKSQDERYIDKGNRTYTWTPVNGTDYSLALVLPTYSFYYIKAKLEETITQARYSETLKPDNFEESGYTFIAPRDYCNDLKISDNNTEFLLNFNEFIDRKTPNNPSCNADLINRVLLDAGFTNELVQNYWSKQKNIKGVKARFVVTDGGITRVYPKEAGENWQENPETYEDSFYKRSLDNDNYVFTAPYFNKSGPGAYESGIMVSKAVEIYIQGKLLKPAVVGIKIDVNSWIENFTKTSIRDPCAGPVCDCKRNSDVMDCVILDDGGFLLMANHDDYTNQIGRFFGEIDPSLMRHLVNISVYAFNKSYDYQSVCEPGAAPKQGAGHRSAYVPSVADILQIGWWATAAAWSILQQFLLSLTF
# Sequence of human Cav2.2 (P54289 952-1103 partner limits assumed): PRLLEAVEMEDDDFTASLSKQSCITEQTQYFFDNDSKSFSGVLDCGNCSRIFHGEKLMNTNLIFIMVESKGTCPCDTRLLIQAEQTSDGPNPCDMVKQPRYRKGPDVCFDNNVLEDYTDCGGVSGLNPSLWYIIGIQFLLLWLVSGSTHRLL
# Sequence of human Cav2.2 (P54284 whole entry partner): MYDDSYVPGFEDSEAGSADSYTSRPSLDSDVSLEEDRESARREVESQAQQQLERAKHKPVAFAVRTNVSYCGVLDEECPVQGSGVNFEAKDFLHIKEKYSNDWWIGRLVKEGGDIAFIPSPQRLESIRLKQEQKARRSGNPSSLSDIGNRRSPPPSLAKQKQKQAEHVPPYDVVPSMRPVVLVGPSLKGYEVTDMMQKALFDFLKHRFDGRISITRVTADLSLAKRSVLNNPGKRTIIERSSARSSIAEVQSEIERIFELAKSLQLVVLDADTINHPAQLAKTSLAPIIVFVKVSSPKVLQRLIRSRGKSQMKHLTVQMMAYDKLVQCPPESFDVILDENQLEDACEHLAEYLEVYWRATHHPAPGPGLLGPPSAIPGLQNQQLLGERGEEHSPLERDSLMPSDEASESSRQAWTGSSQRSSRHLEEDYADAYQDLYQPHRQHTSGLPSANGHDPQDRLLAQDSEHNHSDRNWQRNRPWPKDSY
row,SMILES,IC50
1,"O=C1[C@H](c2ccc(F)cc2)CCN1Cc1nc(-c2ccc(C(F)(F)F)cc2)no1 (single isomer, unassigned) [Example 236]",2.75 µM
2,"O=C(CN1CCC(c2ccc(F)cc2)(c2ccc(F)cc2)C1=O)N1C[C@@H]2CCCN(Cc3cccc(C(F)(F)F)c3)[C@@H]2C1 [Example 210, 3,3-bis(4-fluorophenyl)-1-(2-oxo-2-{(4aS,7aS)-1-[3-(trifluoromethyl)benzyl]octahydro-6H-pyrrolo[3,4-b]pyridin-6-yl}ethyl)pyrrolidin-2-one]",0.96 µM
3,"O=C(CN1CCCC(c2ccccc2)(c2ccccc2)C1=O)N1CCC(C(O)(c2ccc(F)cc2)c2ccc(F)cc2)CC1 [Example 272, 1-(2-{4-[bis(4-fluorophenyl)(hydroxy)methyl]piperidin-1-yl}-2-oxoethyl)-3,3-diphenylpiperidin-2-one]",1.96 µM
4,"O=C(CN1CCCC(c2ccc(F)cc2)(c2ccc(F)cc2)C1=O)N1CCC(c2ccccc2)(c2ccccc2)CC1 [Example 173, 1-[2-(4,4-diphenylpiperidin-1-yl)-2-oxoethyl]-3,3-bis(4-fluorophenyl)piperidin-2-one]",3.88 µM
5,"O=C1N(Cc2nc(-c3ccc(C(F)(F)F)cc3)no2)CCCC1(c1ccc(F)cc1)c1ccc(F)cc1 [Example 191, 3,3-bis(4-fluorophenyl)-1-({3-[4-(trifluoromethyl)phenyl]-1,2,4-oxadiazol-5-yl}methyl)piperidin-2-one]",6.87 µM
6,"CC(C)COc1ccc(-c2noc(CN3CCCC(c4ccccc4)(c4ccccc4)C3=O)n2)cc1 [Example 209, 1-{[3-(4-isobutoxyphenyl)-1,2,4-oxadiazol-5-yl]methyl}-3,3-diphenylpiperidin-2-one]",10.7 µM
7,"O=C(CN1CCCC(c2ccccc2)(c2ccccc2)C1=O)N1CCC(=NOCc2ccccc2)CC1 [Example 163, 1-(2-{4-[(benzyloxy)imino]piperidin-1-yl}-2-oxoethyl)-3,3-diphenylpiperidin-2-one]",3.79 µM
8,"COc1cccc(C2(C(C)C)CCCN(CCCN(C)CCc3ccc(F)cc3)C2=O)c1 (stereo not drawn) [Example 129, 1-{3-[[2-(4-fluorophenyl)ethyl](methyl)amino]propyl}-3-isopropyl-3-(3-methoxyphenyl)piperidin-2-one]",1.14 µM
9,"O=C1N(Cc2nc(-c3ccc(C(F)(F)F)cc3)no2)CCC1(c1ccccc1)c1ccccc1 [Example 62, 3,3-diphenyl-1-({3-[4-(trifluoromethyl)phenyl]-1,2,4-oxadiazol-5-yl}methyl)pyrrolidin-2-one]",8.71 µM
10,"O=C(CN1CCC(c2ccc(F)cc2)(c2ccc(F)cc2)C1=O)N1CCC(C(O)(c2ccc(F)cc2)c2ccc(F)cc2)CC1 [Example 271, 1-(2-{4-[bis(4-fluorophenyl)(hydroxy)methyl]piperidin-1-yl}-2-oxoethyl)-3,3-bis(4-fluorophenyl)pyrrolidin-2-one]",2.57 µM
11,"O=C(CN1CCCC(c2ccccc2)(c2ccccc2)C1=O)N1C[C@@H]2CCCN(C(c3ccccc3)c3ccccc3)[C@@H]2C1 [Example 88, 1-{2-[(4aS,7aS)-1-benzhydryloctahydro-6H-pyrrolo[3,4-b]pyridin-6-yl]-2-oxoethyl}-3,3-diphenylpiperidin-2-one]",1.64 µM
12,"O=C(CN1CCNC(c2ccccc2)C1=O)N1CCN(C(c2ccc(F)cc2)c2ccc(F)cc2)CC1 (stereo not drawn) [Example 103, 1-(2-{4-[bis(4-fluorophenyl)methyl]piperazin-1-yl}-2-oxoethyl)-3-phenylpiperazin-2-one]",10.6 µM
13,"O=C(CN1CCC(c2ccccc2)(c2ccccc2)C1=O)N1CCC(C(c2ccccc2)c2ccccc2)CC1 [Example 30, 1-[2-(4-benzhydrylpiperidin-1-yl)-2-oxoethyl]-3,3-diphenylpyrrolidin-2-one]",0.65 µM
14,"O=C(CN1CCC(c2ccccc2)(c2ccccc2)C1=O)N1CCC(C(O)(c2ccccc2)c2ccccc2)CC1 [Example 34, 1-(2-{4-[hydroxy(diphenyl)methyl]piperidin-1-yl}-2-oxoethyl)-3,3-diphenylpyrrolidin-2-one]",0.96 µM
15,"O=C(CN1CCC(c2ccccc2)(c2ccccc2)C1=O)NC1(c2ccccc2)CCC1 [Example 11, 2-(2-oxo-3,3-diphenylpyrrolidin-1-yl)-N-(1-phenylcyclobutyl)acetamide]",0.89 µM
16,"COc1cc(CN2CCN(CCN3CCC(c4ccc(F)cc4)(c4ccc(F)cc4)C3=O)CC2)cc(OC)c1OC [Example 109, 3,3-bis(4-fluorophenyl)-1-{2-[4-(3,4,5-trimethoxybenzyl)piperazin-1-yl]ethyl}pyrrolidin-2-one]",1.76 µM
17,"O=C(CN1CCCC(c2ccccc2)(c2ccccc2)C1=O)N1CCc2ccc(C(F)(F)F)cc2C1 [Example 261, 1-{2-oxo-2-[7-(trifluoromethyl)-3,4-dihydroisoquinolin-2(1H)-yl]ethyl}-3,3-diphenylpiperidin-2-one]",4.44 µM
18,"COc1ccc(OC2CCN(C(=O)CN3CCCC(c4ccccc4)(c4ccccc4)C3=O)CC2)cc1 [Example 161, 1-{2-[4-(4-methoxyphenoxy)piperidin-1-yl]-2-oxoethyl}-3,3-diphenylpiperidin-2-one]",5.74 µM
19,"COc1ccc(C2(c3ccc(OC)cc3)CCN(CCNC(=O)c3ccccc3)C2=O)cc1 [Example 112, N-{2-[3,3-bis(4-methoxyphenyl)-2-oxopyrrolidin-1-yl]ethyl}benzamide]",10 µM
20,"O=C1N(Cc2nc(-c3ccc(C(F)(F)F)cc3)no2)CCCC1(c1ccccc1)c1ccccc1 [Example 99, 3,3-diphenyl-1-({3-[4-(trifluoromethyl)phenyl]-1,2,4-oxadiazol-5-yl}methyl)piperidin-2-one]",8.65 µM

# More lines, in order of falling IC50, values ahead:
row,IC50,SMILES
1,7.55 µM,"O=C(CN1CCC(c2ccccc2)(c2ccccc2)C1=O)N1CCC(C(O)(c2cccc(C(F)(F)F)c2)c2cccc(C(F)(F)F)c2)CC1 [Example 33, 1-{2-[4-(hydroxy{bis[3-(trifluoromethyl)phenyl]}methyl)piperidin-1-yl]-2-oxoethyl}-3,3-diphenylpyrrolidin-2-one]"
2,6.48 µM,"O=C(CN1CCC(c2ccccc2)(c2ccccc2)C1=O)Nc1ncc(C(F)(F)F)cc1Cl [Example 249, N-[3-chloro-5-(trifluoromethyl)pyridin-2-yl]-2-(2-oxo-3,3-diphenylpyrrolidin-1-yl)acetamide]"
3,5.98 µM,"O=C1N(Cc2nc(-c3ccc(OC(F)(F)F)cc3)no2)CCCC1(c1ccccc1)c1ccccc1 [Example 199, 3,3-diphenyl-1-({3-[4-(trifluoromethoxy)phenyl]-1,2,4-oxadiazol-5-yl}methyl)piperidin-2-one]"
4,5.21 µM,"Cc1nc(-c2cccc(C(F)(F)F)c2)sc1CN1CCC(c2ccccc2)(c2ccccc2)C1=O [Example 157, 1-({4-methyl-2-[3-(trifluoromethyl)phenyl]-1,3-thiazol-5-yl}methyl)-3,3-diphenylpyrrolidin-2-one]"
5,4.01 µM,"O=C1N(Cc2noc(-c3ccc(C(F)(F)F)cc3)n2)CCC1(c1ccccc1)c1ccccc1 [Example 196, 3,3-diphenyl-1-({5-[4-(trifluoromethyl)phenyl]-1,2,4-oxadiazol-3-yl}methyl)pyrrolidin-2-one]"
6,3.87 µM,"O=C(CN1CCC(c2ccccc2)(c2ccccc2)C1=O)NCCc1cccc(C(F)(F)F)c1 [Example 10, 2-(2-oxo-3,3-diphenylpyrrolidin-1-yl)-N-{2-[3-(trifluoromethyl)phenyl]ethyl}acetamide]"
7,3.69 µM,"O=C(CN1CCCC(c2ccccc2)(c2ccccc2)C1=O)N1CCC(c2ccc(F)cc2)CC1 [Example 244, 1-{2-[4-(4-fluorophenyl)piperidin-1-yl]-2-oxoethyl}-3,3-diphenylpiperidin-2-one]"
8,3.37 µM,"O=C1N(Cc2nc(-c3ccc(C(F)(F)F)nc3)no2)CCCC1(c1ccccc1)c1ccccc1 [Example 177, 3,3-diphenyl-1-({3-[6-(trifluoromethyl)pyridin-3-yl]-1,2,4-oxadiazol-5-yl}methyl)piperidin-2-one]"
9,2.68 µM,"O=C(CN1CCCC(c2ccccc2)(c2ccccc2)C1=O)N1CCCCC1c1ccc(F)cc1 (stereo not drawn) [Example 74, 1-{2-[2-(4-fluorophenyl)piperidin-1-yl]-2-oxoethyl}-3,3-diphenylpiperidin-2-one]"
10,2.13 µM,"O=C(CN1CCC(c2ccccc2)(c2ccccc2)C1=O)N1CCc2ccc(C(F)(F)F)cc2C1 [Example 55, 1-{2-oxo-2-[7-(trifluoromethyl)-3,4-dihydroisoquinolin-2(1H)-yl]ethyl}-3,3-diphenylpyrrolidin-2-one]"
11,1.91 µM,"O=C(CN1CCC(c2ccccc2)(c2ccccc2)C1=O)N1CCC(=C(c2ccccc2)c2ccccc2)CC1 [Example 31, 1-{2-[4-(diphenylmethylene)piperidin-1-yl]-2-oxoethyl}-3,3-diphenylpyrrolidin-2-one]"
12,1.77 µM,"CC(C)(C)OC(=O)N1CCN(CC(=O)N2CCN(C(c3ccccc3)c3ccccc3)CC2)C(=O)C1c1ccccc1 (stereo not drawn) [Example 101, tert-butyl 4-[2-(4-benzhydrylpiperazin-1-yl)-2-oxoethyl]-3-oxo-2-phenylpiperazine-1-carboxylate]"
13,1.6 µM,"O=C1N(Cc2nc(CCc3ccc(Cl)cc3)no2)CCCC1(c1ccccc1)c1ccccc1 [Example 213, 1-({3-[2-(4-chlorophenyl)ethyl]-1,2,4-oxadiazol-5-yl}methyl)-3,3-diphenylpiperidin-2-one]"
14,0.99 µM,"O=C(CN1CCC(c2ccccc2)(c2ccccc2)C1=O)NCCC(c1ccccc1)c1ccccc1 [Example 13, N-(3,3-diphenylpropyl)-2-(2-oxo-3,3-diphenylpyrrolidin-1-yl)acetamide]"
15,0.96 µM,"O=C(CN1CCCC(c2ccccc2)(c2ccccc2)C1=O)NC1CCN(Cc2ccc(F)c(C(F)(F)F)c2)CC1 [Example 183, N-{1-[4-fluoro-3-(trifluoromethyl)benzyl]piperidin-4-yl}-2-(2-oxo-3,3-diphenylpiperidin-1-yl)acetamide]"
16,0.9 µM,"O=C(CN1CCC(c2ccccc2)(c2ccccc2)C1=O)N1CCN(Cc2c(Cl)cccc2Cl)CC1 [Example 36, 1-{2-[4-(2,6-dichlorobenzyl)piperazin-1-yl]-2-oxoethyl}-3,3-diphenylpyrrolidin-2-one]"
